Assay results published in the supplement of paper PMC10307832.

Key:
Assay in all cases: relative viability (nuclei count vs DMSO), 5 days (fraction); higher = more cells survive
[1] = compound: COC1=C(C=C(C=C1)C2=CC3=NC=CN3C(=N2)NC4=C(C=CC=N4)C(=O)N)OC [BAY61-3606] + C[C@@H](Oc1cc(-c2cnn(C3CCNCC3)c2)cnc1N)c1c(Cl)ccc(F)c1Cl [Crizotinib] (partner 1 µM)
Method in brief: (§1)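 Lung cancer cell lines were pin-tool dosed in 1536-well plates on the day after seeding, with either a lone drug or a fixed anchor-drug dose plus five library-drug doses (not always all listed) in √10 steps. Nuclei were counted on 4× images after 5 days. Relative viability is the ratio of treated-well to vehicle-well nuclei counts, with each value a median of duplicate plates.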

[2] = compound: COC1=C(C=C(C=C1)C2=CC3=NC=CN3C(=N2)NC4=C(C=CC=N4)C(=O)N)OC [BAY61-3606] + Nc1ncn([C@H]2C[C@H](O)[C@@H](CO)O2)c(=O)n1 [Decitabine] (partner 2 µM)
Method in brief: as §1

[3] = compound: COc1cccc2c1C(=O)c1c(O)c3c(c(O)c1C2=O)C[C@@](O)(C(=O)CO)C[C@@H]3O[C@H]1C[C@H](N)[C@H](O)[C@H](C)O1 [Doxorubicin] + Cc1cc(Nc2cc(N3CCN(C)CC3)nc(Sc3ccc(NC(=O)C4CC4)cc3)n2)n[nH]1 [Tozasertib] (partner 0.1 µM)
Method in brief: as §1

[4] = compound: COc1cccc2c1C(=O)c1c(O)c3c(c(O)c1C2=O)C[C@@](O)(C(=O)CO)C[C@@H]3O[C@H]1C[C@H](N)[C@H](O)[C@H](C)O1 [Doxorubicin] + O=C(CCCCCCC(=O)Nc1ccccc1)NO [Vorinostat] (partner 1 µM)
Method in brief: as §1

Row | Cell Line | relative viability ([1]; first compound 0.02 µM) | relative viability ([1]; first compound 0.06325 µM) | relative viability ([1]; first compound 0.2 µM) | relative viability ([1]; first compound 0.6325 µM) | relative viability ([1]; first compound 2 µM) | relative viability ([2]; first compound 0.02 µM) | relative viability ([2]; first compound 0.06325 µM) | relative viability ([2]; first compound 0.2 µM) | relative viability ([2]; first compound 0.6325 µM) | relative viability ([2]; first compound 2 µM) | relative viability ([3]; first compound 0.001 µM) | relative viability ([3]; first compound 0.003162 µM) | relative viability ([3]; first compound 0.01 µM) | relative viability ([3]; first compound 0.03162 µM) | relative viability ([3]; first compound 0.1 µM) | relative viability ([4]; first compound 0.001 µM) | relative viability ([4]; first compound 0.003162 µM) | relative viability ([4]; first compound 0.01 µM) | relative viability ([4]; first compound 0.03162 µM) | relative viability ([4]; first compound 0.1 µM)
1 | LXF-289 | 0.753 | 0.82 | 0.795 | 0.821 | 0.81 | 0.399 | 0.402 | 0.411 | 0.396 | 0.405 | 0.205 | 0.192 | 0.192 | 0.221 | 0.2 | 0.703 | 0.787 | 0.745 | 0.805 | 0.744
2 | NCI-H1437 | 0.973 | 0.961 | 0.854 | 0.984 | 0.797 | 0.579 | 0.602 | 0.564 | 0.563 | 0.582 | 0.411 | 0.414 | 0.405 | 0.379 | 0.283 | 0.784 | 0.891 | 0.812 | 0.627 | 0.585
3 | HCC-827 | 0.938 | 0.952 | 0.942 | 0.974 | 0.965 | 0.327 | 0.321 | 0.352 | 0.317 | 0.308 | 0.45 | 0.391 | 0.407 | 0.416 | 0.432 | 0.559 | 0.854 | 0.856 | 0.774 | 0.641
4 | NCI-H1650 | 0.936 | 1.08 | 0.866 | 1 | 0.385 | 0.449 | 0.444 | 0.432 | 0.424 | 0.387 | 0.411 | 0.32 | 0.261 | 0.207 | 0.111 | 0.52 | 0.625 | 0.417 | 0.181 | 0.16
5 | HCC-15 | 0.835 | 0.834 | 0.806 | 0.836 | 0.779 | 0.575 | 0.569 | 0.583 | 0.65 | 0.6 |  | 0.428 | 0.454 | 0.201 | 0.116 | 0.888 | 0.847 | 0.818 | 0.736 | 0.747
6 | EKVX | 0.972 | 0.868 | 0.976 | 1.15 | 0.806 | 0.362 | 0.344 | 0.318 | 0.349 | 0.328 | 0.35 | 0.434 | 0.383 | 0.415 | 0.342 | 0.764 | 0.889 | 0.762 | 0.724 | 0.794
7 | NCI-H2126 | 1.06 | 1.01 | 1 | 0.973 | 0.893 | 0.631 | 0.606 | 0.583 | 0.623 | 0.555 | 0.902 | 0.752 | 0.774 | 0.229 | 0.251 | 0.725 | 0.839 | 0.8 | 0.751 | 0.799
8 | LK-2 | 0.227 | 0.216 | 0.228 | 0.202 | 0.201 | 0.319 | 0.287 | 0.362 | 0.28 | 0.342 | 0.153 | 0.156 | 0.134 | 0.177 | 0.19 | 0.318 | 0.311 | 0.266 | 0.23 | 0.307
